{"source": "paper PMC2812605", "about": "(Biochemical pharmacology, 2009)", "molecular_target": "T1, P2Y14 receptor (Rattus norvegicus, UniProt O35881)", "T1 sequence (O35881 1-305)": "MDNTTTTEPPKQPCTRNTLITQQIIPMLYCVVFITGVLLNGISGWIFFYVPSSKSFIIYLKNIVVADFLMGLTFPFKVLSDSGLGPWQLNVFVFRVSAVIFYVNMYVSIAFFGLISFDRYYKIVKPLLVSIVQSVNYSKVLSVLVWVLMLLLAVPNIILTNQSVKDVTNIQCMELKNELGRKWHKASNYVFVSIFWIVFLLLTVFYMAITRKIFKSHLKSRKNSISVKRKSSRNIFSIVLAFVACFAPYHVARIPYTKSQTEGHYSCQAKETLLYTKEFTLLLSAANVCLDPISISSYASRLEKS", "assay": "agonist-stimulated […]GTPγS binding to RBL-2H3 membranes", "type": "biochemical", "data": [{"molecule": "O=c1ccn([C@@H]2O[C@H](COP(=O)(O)OP(=O)(O)O[C@H]3O[C@H](CO)[C@@H](O)[C@H](O)[C@H]3O)[C@@H](O)[C@H]2O)c(=S)[nH]1", "note": "[MRS2690, diphosphoric acid 1-α-D-glucopyranosyl ester 2-(2-thiouridin-5’’-yl) ester]", "values": [{"measurement": "EC50", "value": "8.1 ± 1.6", "unit": "nM"}]}]}
